Experimental findings from patent US10266526B2, “Substituted 1,2,3-triazoles as SMYD inhibitors for treating cancer” (EPIZYME, INC., priority 2014, dated 2019) are described below.

The target in this experiment is SMYD2 (Homo sapiens (Human), UniProt Q9NRG4). Kind of experiment: SMYD2 biochemical assay (SMYD2 enzyme assay on peptide substrate, 3H-SAM Flashplate). The conditions noted are these: read-out: SMYD2 Biochem IC50; IC50 values are an average of n = 1 to n = 50.
Chain of SMYD2 (Q9NRG4 whole entry): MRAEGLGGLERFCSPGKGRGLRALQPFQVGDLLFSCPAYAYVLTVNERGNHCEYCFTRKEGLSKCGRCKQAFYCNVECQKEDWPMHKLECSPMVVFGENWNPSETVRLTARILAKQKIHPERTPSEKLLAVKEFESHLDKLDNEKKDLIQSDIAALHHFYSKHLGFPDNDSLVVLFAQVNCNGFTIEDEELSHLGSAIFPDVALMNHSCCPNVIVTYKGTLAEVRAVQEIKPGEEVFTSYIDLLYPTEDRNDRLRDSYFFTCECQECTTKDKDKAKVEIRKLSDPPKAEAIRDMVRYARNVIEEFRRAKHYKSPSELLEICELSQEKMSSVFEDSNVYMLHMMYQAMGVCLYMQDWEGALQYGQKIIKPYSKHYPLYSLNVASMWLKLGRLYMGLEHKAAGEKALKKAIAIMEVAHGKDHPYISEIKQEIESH
With `CC[C@@H](c1cccc(Cl)c1)N1CC(NC(=O)c2cc(C3CC3)cnn2)C1` [compound 866, N-{1-[(1S)-1-(3-chlorophenyl)propyl]azetidin-3-yl}-5-cyclopropylpyridazine-3-carboxamide], the IC50 (in general, the point on the concentration scale where inhibition reaches its midpoint) was 0.355 µM. Consider `CN(C)CCCNC(=O)c1cc(C2CC2)cnn1` [compound 867, 5-cyclopropyl-N-[3-(dimethylamino)propyl]pyridazine-3-carboxamide], for which the IC50 is above 50 µM.

Regarding `CC(c1ccc(OCc2ccccc2)c(Cl)c1)N1CC(NC(=O)c2cn(C3CC3)nn2)C1` (stereo not drawn) [compound 868, N-(1-{1-[4-(benzyloxy)-3-chlorophenyl]ethyl}azetidin-3-yl)-1-cyclopropyl-1H-1,2,3-triazole-4-carboxamide], the concentration for half-maximal inhibition (IC50) worked out at 0.925 µM. Regarding `CN(C)CCNC(=O)c1cc(C2CC2)cnn1` [compound 869, 5-cyclopropyl-N-[2-(dimethylamino)ethyl]pyridazine-3-carboxamide], the IC50 came out at 21.1 µM.

`C[C@@H](c1ccccc1)N1CC(NC(=O)c2ncc(C3CC3)[nH]2)C1` [compound 914, 5-cyclopropyl-N-{1-[(1S)-1-phenylethyl]azetidin-3-yl}-1H-imidazole-2-carboxamide]: the 50% inhibitory concentration (IC50) came out at 0.729 µM. Under `C[C@H](c1ccccc1)N1CC(NC(=O)c2ncc(C3CC3)[nH]2)C1` [compound 915, 5-cyclopropyl-N-{1-[(1R)-1-phenylethyl]azetidin-3-yl}-1H-imidazole-2-carboxamide] stands above 50 µM; under `CC(C)N1CCC(NC(=O)c2cc(C3CC3)cnn2)CC1` [compound 916, 5-cyclopropyl-N-[1-(propan-2-yl)piperidin-4-yl]pyridazine-3-carboxamide], 29.1 µM; under `CN1CCC(NC(=O)c2cc(C3CC3)cnn2)CC1` [compound 917, 5-cyclopropyl-N-(1-methylpiperidin-4-yl)pyridazine-3-carboxamide], above 50 µM. Under `CN1CCCC(NC(=O)c2cc(C3CC3)cnn2)C1` (stereo not drawn) [compound 918, 5-cyclopropyl-N-(1-methylpiperidin-3-yl)pyridazine-3-carboxamide] stands above 50 µM. Consider `CC(C)N1CC(NC(=O)c2cn(C3CC3)cn2)C1` [compound 919, 1-cyclopropyl-N-(1-isopropylazetidin-3-yl)-1H-imidazole-4-carboxamide], for which the IC50 worked out at 4.6 µM.

With `CC(c1ccc2[nH]nc(-c3ccccc3Cl)c2c1)N1CC(NC(=O)c2cn(C3CC3)nn2)C1` (stereo not drawn) [compound 920, N-(1-(1-(3-(2-chlorophenyl)-1H-indazol-5-yl)ethyl)azetidin-3-yl)-1-cyclopropyl-1H-1,2,3-triazole-4-carboxamide], the 50% inhibitory concentration (IC50) was above 50 µM. Next, `CN(C)CCCNC(=O)c1cn(C2CC2)nn1` [compound 921, 1-cyclopropyl-N-(3-(dimethylamino)propyl)-1H-1,2,3-triazole-4-carboxamide]: 5.4 µM. `CC(c1ccc(CNc2ccccc2)cc1)N1CC(NC(=O)c2cn(C3CC3)nn2)C1` (stereo not drawn) [compound 922, 1-cyclopropyl-N-(1-(1-(4-((phenylamino)methyl)phenyl)ethyl)azetidin-3-yl)-1H-1,2,3-triazole-4-carboxamide]: the concentration for half-maximal inhibition (IC50) worked out at 0.65 µM. Next, `COc1ccc(C(C)N2CC(NC(=O)c3cn(C4CC4)nn3)C2)nc1` (stereo not drawn) [compound 923, 1-cyclopropyl-N-(1-(1-(5-methoxypyridin-2-yl)ethyl)azetidin-3-yl)-1H-1,2,3-triazole-4-carboxamide]: 2.7 µM; `CC(c1ccc(OCC2CCNCC2)cc1)N1CC(NC(=O)c2cn(C3CC3)nn2)C1` (stereo not drawn) [compound 925, 1-cyclopropyl-N-(1-(1-(4-(piperidin-4-ylmethoxy)phenyl)ethyl)azetidin-3-yl)-1H-1,2,3-triazole-4-carboxamide]: 4.3 µM; `O=C(NC1CN(Cc2cnn(Cc3ccc(Cl)cc3)c2)C1)c1nc(C2CC2)c[nH]1` [compound 927, N-(1-((1-(4-chlorobenzyl)-1H-pyrazol-4-yl)methyl)azetidin-3-yl)-4-cyclopropyl-1H-imidazole-2-carboxamide]: 0.011 µM. On to `Cn1cc(COc2ccc(CN3CC(NC(=O)c4cc(C5CC5)cnn4)C3)cc2)cn1` [compound 928, 5-cyclopropyl-N-(1-(4-((1-methyl-1H-pyrazol-4-yl)methoxy)benzyl)azetidin-3-yl)pyridazine-3-carboxamide], for which the half-inhibitory concentration (IC50) amounted to 0.61 µM. In the case of `O=C(NC1CN(Cc2cnn(Cc3ccc(Cl)cc3)c2)C1)c1cc(C2CC2)cnn1` [compound 929, N-(1-((1-(4-chlorobenzyl)-1H-pyrazol-4-yl)methyl)azetidin-3-yl)-5-cyclopropylpyridazine-3-carboxamide], the IC50 came to 0.0012 µM. In the case of `O=C(NC1CN(Cc2cnn(Cc3ccc(Cl)cc3)c2)C1)c1cc(C2CC2)ccn1` [compound 930, N-(1-((1-(4-chlorobenzyl)-1H-pyrazol-4-yl)methyl)azetidin-3-yl)-4-cyclopropylpicolinamide], the IC50 was 0.0033 µM. On to `O=C(NC1CN(Cc2cn(Cc3ccccc3)nn2)C1)c1cn(C2CC2)nn1` [compound 931, N-(1-((1-benzyl-1H-1,2,3-triazol-4-yl)methyl)azetidin-3-yl)-1-cyclopropyl-1H-1,2,3-triazole-4-carboxamide], for which the half-inhibitory concentration (IC50) turned out to be 11.1 µM.

For `COc1ccc(Cn2cc(CN3CC(NC(=O)c4cn(C5CC5)nn4)C3)cn2)cc1` [compound 932, 1-cyclopropyl-N-(1-((1-(4-methoxybenzyl)-1H-pyrazol-4-yl)methyl)azetidin-3-yl)-1H-1,2,3-triazole-4-carboxamide], the IC50 is 0.028 µM. On to `O=C(NC1CN(Cc2cnn(Cc3ccccc3)c2)C1)c1cc(C2CC2)cnn1` [compound 933, N-(1-((1-benzyl-1H-pyrazol-4-yl)methyl)azetidin-3-yl)-5-cyclopropylpyridazine-3-carboxamide], for which the IC50 came to 0.0078 µM. In the case of `COc1cccc(C(C)N2CC(NC(=O)c3cc(C4CC4)cnn3)C2)c1` (stereo not drawn) [compound 934, 5-cyclopropyl-N-(1-(1-(3-methoxyphenyl)ethyl)azetidin-3-yl)pyridazine-3-carboxamide], the concentration for half-maximal inhibition (IC50) is 0.69 µM.

On to `CC(c1ccc2nn(C)cc2c1)N1CC(NC(=O)c2cn(C3CC3)nn2)C1` (stereo not drawn) [compound 935, 1-cyclopropyl-N-(1-(1-(2-methyl-2H-indazol-5-yl)ethyl)azetidin-3-yl)-1H-1,2,3-triazole-4-carboxamide], for which the IC50 amounted to 1.6 µM.

As to `O=C(NC1CN(Cc2cnn(Cc3ccc4scnc4c3)c2)C1)c1cn(C2CC2)nn1` [compound 936, N-(1-((1-(benzo[d]thiazol-5-ylmethyl)-1H-pyrazol-4-yl)methyl)azetidin-3-yl)-1-cyclopropyl-1H-1,2,3-triazole-4-carboxamide], the half-inhibitory concentration (IC50) was found to be 0.08 µM. As to `Cc1coc(Cn2cc(CN3CC(NC(=O)c4cn(C5CC5)nn4)C3)cn2)n1` [compound 937, 1-cyclopropyl-N-(1-((1-((4-methyloxazol-2-yl)methyl)-1H-pyrazol-4-yl)methyl)azetidin-3-yl)-1H-1,2,3-triazole-4-carboxamide], the IC50 is 0.12 µM.

As for `COc1ccc(Cl)c(C(C)N2CC(NC(=O)c3cn(C4CC4)nn3)C2)c1` (stereo not drawn) [compound 938, N-(1-(1-(2-chloro-5-methoxyphenyl)ethyl)azetidin-3-yl)-1-cyclopropyl-1H-1,2,3-triazole-4-carboxamide], the IC50 was determined as 0.13 µM. Under `COc1cc(C(C)N2CC(NC(=O)c3cn(C4CC4)nn3)C2)ccc1OCc1ccccc1` (stereo not drawn) [compound 939, N-(1-(1-(4-(benzyloxy)-3-methoxyphenyl)ethyl)azetidin-3-yl)-1-cyclopropyl-1H-1,2,3-triazole-4-carboxamide] stands 3.6 µM.

Turning to `O=C(NC1CN(Cc2cn[nH]c2)C1)c1cn(C2CC2)nn1` [compound 940, N-(1-((1H-pyrazol-4-yl)methyl)azetidin-3-yl)-1-cyclopropyl-1H-1,2,3-triazole-4-carboxamide], the IC50 came to 7.7 µM. Under `CSc1ccc(Cn2cc(CN3CC(NC(=O)c4cn(C5CC5)nn4)C3)cn2)cc1` [compound 941, 1-cyclopropyl-N-(1-((1-(4-(methylthio)benzyl)-1H-pyrazol-4-yl)methyl)azetidin-3-yl)-1H-1,2,3-triazole-4-carboxamide] stands 0.028 µM; under `O=C(NC1CN(Cc2cnn(Cc3ccccc3Cl)c2)C1)c1cn(C2CC2)nn1` [compound 942, N-(1-((1-(2-chlorobenzyl)-1H-pyrazol-4-yl)methyl)azetidin-3-yl)-1-cyclopropyl-1H-1,2,3-triazole-4-carboxamide], 0.11 µM. Next, `O=C(NC1CN(Cc2cnn(Cc3ccc(C(F)(F)F)cc3)c2)C1)c1cn(C2CC2)nn1` [compound 943, 1-cyclopropyl-N-(1-((1-(4-(trifluoromethyl)benzyl)-1H-pyrazol-4-yl)methyl)azetidin-3-yl)-1H-1,2,3-triazole-4-carboxamide]: 0.014 µM; `O=C(NC1CN(Cc2cnn(Cc3ncco3)c2)C1)c1cn(C2CC2)nn1` [compound 944, 1-cyclopropyl-N-(1-((1-(oxazol-2-ylmethyl)-1H-pyrazol-4-yl)methyl)azetidin-3-yl)-1H-1,2,3-triazole-4-carboxamide]: 0.92 µM; `O=C(NC1CN(Cc2cnn(Cc3cscn3)c2)C1)c1cn(C2CC2)nn1` [compound 945, 1-cyclopropyl-N-(1-((1-(thiazol-4-ylmethyl)-1H-pyrazol-4-yl)methyl)azetidin-3-yl)-1H-1,2,3-triazole-4-carboxamide]: 1.2 µM. Under `CCn1cc(CN2CC(NC(=O)c3cn(C4CC4)nn3)C2)cn1` [compound 946, 1-cyclopropyl-N-(1-((1-ethyl-1H-pyrazol-4-yl)methyl)azetidin-3-yl)-1H-1,2,3-triazole-4-carboxamide] stands 2 µM; under `CC(C)(C)c1ccc(Cn2cc(CN3CC(NC(=O)c4cn(C5CC5)nn4)C3)cn2)cc1` [compound 947, N-(1-((1-(4-(tert-butyl)benzyl)-1H-pyrazol-4-yl)methyl)azetidin-3-yl)-1-cyclopropyl-1H-1,2,3-triazole-4-carboxamide], 0.056 µM.
